“Also recorded” adds a separate entry of the source. Values belong to the compound of their own block, whether it stands above or below them.
Assays:
[1] = target: T1, sweet taste receptors T1R2/T1R3 (Homo sapiens, UniProt Q7RTX0+Q8TE23); test: Taste receptor internalization assay (Ring Assay), sweet; type: cell-based; details: for EC50 value, sweet receptor dose response: combined with the stevia blend 4, Example 15; for slope of the dose response curve: with the stevia 4 blend, individual compound vs the combination of compounds 1 and 10, FIGS. 51, 52, 55
T1 construct: receptor internalization assay (“Ring Assay”) on an H716 cell line; endogenous in cells; host or cells: H716 cell line
T1 sequence (Q8TE23 20-839): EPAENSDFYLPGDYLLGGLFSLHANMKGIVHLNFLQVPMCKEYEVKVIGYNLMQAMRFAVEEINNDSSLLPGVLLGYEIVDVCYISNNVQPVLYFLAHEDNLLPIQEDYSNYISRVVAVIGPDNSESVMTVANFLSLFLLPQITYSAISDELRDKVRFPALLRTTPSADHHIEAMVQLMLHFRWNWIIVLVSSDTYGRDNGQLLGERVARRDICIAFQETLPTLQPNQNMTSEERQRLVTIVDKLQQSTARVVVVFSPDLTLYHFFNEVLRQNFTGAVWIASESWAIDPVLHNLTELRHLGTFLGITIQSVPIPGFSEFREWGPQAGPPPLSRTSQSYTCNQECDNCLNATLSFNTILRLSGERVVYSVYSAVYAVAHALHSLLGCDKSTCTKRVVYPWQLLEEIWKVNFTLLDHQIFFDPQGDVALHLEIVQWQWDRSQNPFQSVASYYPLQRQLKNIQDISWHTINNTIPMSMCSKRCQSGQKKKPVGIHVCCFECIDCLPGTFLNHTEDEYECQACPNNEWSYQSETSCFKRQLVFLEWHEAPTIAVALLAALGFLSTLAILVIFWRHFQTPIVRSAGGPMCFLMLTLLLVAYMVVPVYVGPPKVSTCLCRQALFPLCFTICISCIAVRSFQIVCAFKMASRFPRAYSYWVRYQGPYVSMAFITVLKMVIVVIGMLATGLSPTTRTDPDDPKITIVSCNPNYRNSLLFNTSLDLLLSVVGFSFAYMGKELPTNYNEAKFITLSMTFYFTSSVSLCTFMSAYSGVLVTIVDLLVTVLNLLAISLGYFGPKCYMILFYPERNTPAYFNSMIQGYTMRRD
T1 sequence (Q7RTX0 21-852): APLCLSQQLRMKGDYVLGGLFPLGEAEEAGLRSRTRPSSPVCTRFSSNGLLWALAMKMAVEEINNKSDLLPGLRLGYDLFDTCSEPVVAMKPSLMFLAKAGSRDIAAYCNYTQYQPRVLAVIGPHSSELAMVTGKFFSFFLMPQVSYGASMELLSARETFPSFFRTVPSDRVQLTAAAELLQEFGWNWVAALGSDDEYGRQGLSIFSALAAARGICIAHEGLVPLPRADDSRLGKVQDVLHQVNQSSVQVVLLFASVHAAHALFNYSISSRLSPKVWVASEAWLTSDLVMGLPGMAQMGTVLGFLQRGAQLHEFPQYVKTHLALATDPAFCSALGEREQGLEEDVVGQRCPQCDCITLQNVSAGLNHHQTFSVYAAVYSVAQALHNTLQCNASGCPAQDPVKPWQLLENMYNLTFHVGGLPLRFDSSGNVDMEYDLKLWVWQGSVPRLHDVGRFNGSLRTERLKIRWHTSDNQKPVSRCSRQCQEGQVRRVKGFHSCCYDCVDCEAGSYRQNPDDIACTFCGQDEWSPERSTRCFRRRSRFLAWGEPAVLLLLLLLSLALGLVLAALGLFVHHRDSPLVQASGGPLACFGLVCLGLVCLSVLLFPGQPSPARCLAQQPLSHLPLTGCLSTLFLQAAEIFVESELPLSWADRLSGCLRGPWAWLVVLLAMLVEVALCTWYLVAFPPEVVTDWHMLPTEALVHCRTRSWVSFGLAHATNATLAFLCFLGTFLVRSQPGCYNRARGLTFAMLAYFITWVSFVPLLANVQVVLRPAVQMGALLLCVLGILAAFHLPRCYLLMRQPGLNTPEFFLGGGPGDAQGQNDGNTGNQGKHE
Procedure: (§1) The control samples and samples I-X were tested for their ability to activate sweet taste receptors T1R2/T1R3, GLUT4, and Glucagon and bitter taste receptors T2R using a taste receptor internalization assay. Receptor activation and internalization was measured using images acquired by an IMAGEXPRESS Micro automated epifluorescence microscope (Molecular Devices Corporation). The images were analyzed with METAXPRESS 5.1 Workstation software, utilizing the Multiwaves Translocation Scoring analysis algorithm for nuclear and cytoplasmic segmentation. Curve fitting and parameter estimation were then analyzed with TIBCO SPOTFIRE.
(§2) Taste Receptor Internalization General Procedure:
The two control samples and Samples I-X were each serially diluted eight times at a ratio of […] in water (1 part sample to 2 parts water) and dose response was determined by conducting a receptor internalization assay (“Ring Assay”) on an H716 cell line with an HCI platform using the methods disclosed in PCT Patent Application Publication No. WO 2014/183041. Receptor internalization was measured at 5 and 15 minutes. EC50 values and Maximum-Minimum (“Max-Min”) values were calculated using SPOTFIRE software. Sweet, aftertaste, glucagon, and bitterness scoring were calculated using analysis of variance (ANOVA). A median value was then calculated by dividing the Max-Min value by the EC50 value for all time points. The median values, which represent receptor activity, were then plotted on radar graphs, as shown in FIGS. 9A-9B, 10A-10B, 11A-11B, 12A-12B, 13, 14A-14B, 15A-15B, 16A-16B, 17A-17B, 18A-18B, and 19.
Several sets of aqueous samples were prepared to study the dose response for the sweet taste receptors. One set of samples was prepared by adding the stevia blend 4 (1.3 wt % rebaudioside D and 6.7 wt % SG95) to water and adding 0.32 wt % potassium sorbate. Malic acid was added to the solution until the pH was 3.5. Eleven sets of aqueous samples were prepared by separately combining the same stevia 4 blend with either 2-methylbutanol or one of the compounds listed in Table 4. Another set of samples was prepared by adding sugar to water. Four additional sets of aqueous samples were prepared by separately combining each of the stevia blend 4, above, and sugar with either compounds 1 and 10 or compounds 2, 6, and 10 from Table 4. One final set of aqueous samples was prepared by combining the stevia blend 4, above, with compounds 1, 2, 3, and 10 from Table 4. Each set of samples were serially diluted and had concentrations ranging from about 0.001 nM to about 100 μM.
The aqueous samples were tested at varying concentrations for their ability to activate the sweet taste receptors in accordance with the procedures described in Example 8. Dose response curves were generated for the stevia 4 blend, sugar, and each compound-stevia 4 blend combination.

Glucagon = test: Taste receptor internalization assay (Ring Assay), glucagon; type: cell-based; details: added to 8% stevia blend 3 base solution; compared to the sample with compound 2
Procedure: as §1, §2
(§3) The two control samples and Samples I-X were each serially diluted eight times at a ratio of 1:1 in water (1 part sample to 2 parts water) and dose response was determined by conducting a receptor internalization assay (“Ring Assay”) on an H716 cell line with an HCI platform using the methods disclosed in PCT Patent Application Publication No. WO 2014/183041. Receptor internalization was measured at 5 and 15 minutes. EC50 values and Maximum-Minimum (“Max-Min”) values were calculated using SPOTFIRE software. Sweet, aftertaste, glucagon, and bitterness scoring were calculated using analysis of variance (ANOVA). A median value was then calculated by dividing the Max-Min value by the EC50 value for all time points. […]

[2] = tested on: bitter taste receptors T2R; test: Taste receptor internalization assay (Ring Assay), bitter; type: cell-based
Procedure: as §1, §2, §3

[3] = compared with other steviol glycosides; cited from earlier work
[4] = compared with Rebaudioside A; cited from earlier work
[5] = tested on: sweet taste receptors T1R2/T1R3, GLUT4, and Glucagon and bitter taste receptors T2R; test: Taste receptor internalization assay, overall receptor response profile; type: cell-based; details: Sample X vs Sample IX; FIG. 10A
Procedure: as §1, §2, §3

[6] = added to 0.2% stevia blend 3 base solution, Example 11
[7] = added to 8 wt % stevia blend 3 base solution, Examples 10 and 11

SMILES: CCC(C)CO (centres unmarked) [2-methylbutanol]
- sweet receptor response [1, 6]: high sweet
- sweetness (sweet receptor) response [1, 7]: low sweet; also recorded: significantly lower
- glucagon receptor response (Glucagon): significantly lower
- bitterness receptor response [2, 6]: high sweet and bitterness
- bitterness receptor response [2, 7]: no bitterness

SMILES: CCCCOC(C)=O [Compound 1, Butyl Acetate]
- EC50 value, sweet receptor dose response [1]: smaller
- slope of the dose response curve [1]: smaller

SMILES: C=C1C[C@@]23CC[C@H]4[C@@](C)(CCC[C@@]4(C)C(=O)O[C@@H]4O[C@H](CO)[C@@H](O)[C@H](O)[C@H]4O[C@@H]4O[C@H](CO)[C@@H](O)[C@H](O)[C@H]4O)[C@@H]2CC[C@]1(O[C@@H]1O[C@H](CO)[C@@H](O)[C@H](O[C@@H]2O[C@H](CO)[C@@H](O)[C@H](O)[C@H]2O)[C@H]1O[C@@H]1O[C@H](CO)[C@@H](O)[C@H](O)[C@H]1O)C3 [Rebaudioside D]
- taste profile [3]: almost lacking the bitterness and lingering licorice aftertaste
- water solubility [4]: less water soluble than Rebaudioside A

- EC50 value, sweet receptor dose response [1]: smaller
- slope of the dose response curve [1]: smaller
SMILES: CCCC[C@@H]1OC(=O)C[C@H]1C (relative stereo) [Compound 10, Trans-4-Methyl-5-butyldihydro-2(3H)-furanone]

- EC50 value, sweet receptor dose response [1]: low
- taste modulator classification ([1]; for the stevia 4 blend, FIG. 57): sweet enhancer
- effect on the taste profile of stevia [5]: sweet/glucagon enhancer
SMILES: CC(C)CCO [Compound 2, 3-Methylbutanol]

From US11751586B2, “Compositions and methods for improving taste of non-nutritive sweeteners” (PEPSICO, INC., priority 2016, dated 2023)
